Results taken from PubChem BioAssay AID2060888 (Molecular Pharmacology Branch, DTP, NCI, 2025).

Test system: 695427-040-R-J1-PDC complex spheroid viability
Test: Anticancer human tumor 695427-040-R-J1-PDC patient-derived colon adenocarcinoma cell line growth inhibition [RAS]
Settings: for IC50: curve of first compound; for viability, T/C: stronger effect = lower value
Outline: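 Tumour cells grown as complex spheroids with HUVEC endothelial cells and mesenchymal stem cells, treated with RAS pathway inhibitor combinations. Each agent spans half-log steps from near clinical Cmax, or 10 microM where Cmax is unknown.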

[1] = second compound 0.00316 µM, first compound 0.0316 µM
[2] = second compound 0.00316 µM, first compound 0.1 µM
[3] = second compound 0.00316 µM, first compound 0.316 µM
[4] = second compound 0.00316 µM, first compound 1 µM
[5] = second compound 0.00316 µM, first compound 3.16 µM
[6] = second compound 0.00316 µM, first compound 10 µM
[7] = second compound 0.01 µM, first compound 0.0316 µM
[8] = second compound 0.01 µM, first compound 0.1 µM
[9] = second compound 0.01 µM, first compound 0.316 µM
[10] = second compound 0.01 µM, first compound 1 µM
[11] = second compound 0.01 µM, first compound 3.16 µM
[12] = second compound 0.01 µM, first compound 10 µM
[13] = second compound 0.0316 µM, first compound 0.0316 µM
[14] = second compound 0.0316 µM, first compound 0.1 µM
[15] = second compound 0.0316 µM, first compound 0.316 µM
[16] = second compound 0.0316 µM, first compound 1 µM
[17] = second compound 0.0316 µM, first compound 3.16 µM
[18] = second compound 0.0316 µM, first compound 10 µM
[19] = second compound 0.1 µM, first compound 0.0316 µM
[20] = second compound 0.1 µM, first compound 0.1 µM
[21] = second compound 0.1 µM, first compound 0.316 µM
[22] = second compound 0.1 µM, first compound 1 µM
[23] = second compound 0.1 µM, first compound 3.16 µM
[24] = second compound 0.1 µM, first compound 10 µM
[25] = second compound 0.316 µM, first compound 0.0316 µM
[26] = second compound 0.316 µM, first compound 0.1 µM
[27] = second compound 0.316 µM, first compound 0.316 µM
[28] = second compound 0.316 µM, first compound 1 µM
[29] = second compound 0.316 µM, first compound 3.16 µM
[30] = second compound 0.316 µM, first compound 10 µM
[31] = second compound 1 µM, first compound 0.0316 µM
[32] = second compound 1 µM, first compound 0.1 µM
[33] = second compound 1 µM, first compound 0.316 µM
[34] = second compound 1 µM, first compound 1 µM
[35] = second compound 1 µM, first compound 3.16 µM
[36] = second compound 1 µM, first compound 10 µM
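Also: viability read after seven days of drug exposure.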
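For viability, T/C in this document: 100% = DMSO vehicle control viability.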

Compound `Cc1nc(N2CCC3(CC2)COC(C)C3N)c(CO)nc1Sc1ccnc(N)c1Cl` (stereo unspecified) + C=CC(=O)N1CCN(c2nc(OCC3CCCN3C)nc3c(F)c(-c4nc(N)cc(C)c4C(F)(F)F)c(Cl)cc23)C(C)C1 has an IC50 (second compound 0.00316 µM) of over 10 µM, an IC50 (second compound 0.01 µM) of over 10 µM and an IC50 (second compound 0.0316 µM) of over 10 µM. It also gave an IC50 (second compound 0.1 µM) of over 10 µM, an IC50 (second compound 0.316 µM) of over 10 µM and an IC50 (second compound 1 µM) of 9.77 µM. The viability, T/C [1] was 87%, the viability, T/C [2] was 80.8% and the viability, T/C [3] was 70.6%. For the same compound, the viability, T/C [4] was 71%, the viability, T/C [5] was 64.5% and the viability, T/C [6] was 59.6%. The viability, T/C [7] was 91.6%, the viability, T/C [8] was 78.9% and the viability, T/C [9] was 71.9%. It also gave a viability, T/C [10] of 68.7%, a viability, T/C [11] of 64.5% and a viability, T/C [12] of 51.9%. For the same compound, the viability, T/C [13] was 88.8%, the viability, T/C [14] was 79% and the viability, T/C [15] was 71.8%. The viability, T/C [16] was 67.6%, the viability, T/C [17] was 63% and the viability, T/C [18] was 54.9%. For the same compound, the viability, T/C [19] was 85.1%, the viability, T/C [20] was 78.7% and the viability, T/C [21] was 78.6%. For the same compound, the viability, T/C [22] was 67.5%, the viability, T/C [23] was 65.2% and the viability, T/C [24] was 57.7%. The viability, T/C [25] was 81.1%, the viability, T/C [26] was 81.4% and the viability, T/C [27] was 75.4%. The viability, T/C [28] was 68.6%, the viability, T/C [29] was 65.3% and the viability, T/C [30] was 55.4%. The viability, T/C [31] was 86.8%, the viability, T/C [32] was 80.3% and the viability, T/C [33] was 68.6%. It also gave a viability, T/C [34] of 59.9%, a viability, T/C [35] of 60.5% and a viability, T/C [36] of 47.5%.
Compound `NC1c2ccccc2OC12CCN(c1cnc3c(N4CCCc5ncccc54)n[nH]c3n1)CC2` (stereo unspecified) + C=CC(=O)N1CCN(c2nc(OCC3CCCN3C)nc3c(F)c(-c4nc(N)cc(C)c4C(F)(F)F)c(Cl)cc23)C(C)C1 has an IC50 (second compound 0.00316 µM) of 4.31 µM, an IC50 (second compound 0.01 µM) of 3.21 µM and an IC50 (second compound 0.0316 µM) of 2.88 µM. The IC50 (second compound 0.1 µM) was 2.16 µM, the IC50 (second compound 0.316 µM) was 3.37 µM and the IC50 (second compound 1 µM) was 1.06 µM. It also gave a viability, T/C [1] of 72.3%, a viability, T/C [2] of 68.1% and a viability, T/C [3] of 63.8%. For the same compound, the viability, T/C [4] was 57.2%, the viability, T/C [5] was 52.4% and the viability, T/C [6] was 44.9%. For the same compound, the viability, T/C [7] was 78.6%, the viability, T/C [8] was 73.3% and the viability, T/C [9] was 63.3%. For the same compound, the viability, T/C [10] was 59%, the viability, T/C [11] was 51.6% and the viability, T/C [12] was 41%. It also gave a viability, T/C [13] of 80.1%, a viability, T/C [14] of 73.6% and a viability, T/C [15] of 71.4%. It also gave a viability, T/C [16] of 56.8%, a viability, T/C [17] of 50.4% and a viability, T/C [18] of 43.1%. For the same compound, the viability, T/C [19] was 78.2%, the viability, T/C [20] was 74.8% and the viability, T/C [21] was 60.1%. For the same compound, the viability, T/C [22] was 56.9%, the viability, T/C [23] was 46.6% and the viability, T/C [24] was 41.9%. The viability, T/C [25] was 74.6%, the viability, T/C [26] was 68.4% and the viability, T/C [27] was 64.8%. The viability, T/C [28] was 60.2%, the viability, T/C [29] was 49.6% and the viability, T/C [30] was 41.2%. For the same compound, the viability, T/C [31] was 70.6%, the viability, T/C [32] was 62.2% and the viability, T/C [33] was 53.6%. For the same compound, the viability, T/C [34] was 52%, the viability, T/C [35] was 47.2% and the viability, T/C [36] was 36%.
Compound `Nc1ccn(C2OC(CO)C(O)C2(F)F)c(=O)n1` (stereo unspecified) + C=CC(=O)N1CCN(c2nc(OCC3CCCN3C)nc3c(F)c(-c4nc(N)cc(C)c4C(F)(F)F)c(Cl)cc23)C(C)C1 has an IC50 (second compound 0.00316 µM) of over 1 µM, an IC50 (second compound 0.01 µM) of over 1 µM and an IC50 (second compound 0.0316 µM) of over 1 µM. The IC50 (second compound 0.1 µM) was over 1 µM, the IC50 (second compound 0.316 µM) was over 1 µM and the IC50 (second compound 1 µM) was over 1 µM. For the same compound, the viability, T/C (second compound 0.00316 µM, first compound 0.00316 µM) was 93.3%, the viability, T/C (second compound 0.00316 µM, first compound 0.01 µM) was 88.1% and the viability, T/C [1] was 77.5%. The viability, T/C [2] was 84.9%, the viability, T/C [3] was 72.1% and the viability, T/C [4] was 69.6%. The viability, T/C (second compound 0.01 µM, first compound 0.00316 µM) was 94.4%, the viability, T/C (second compound 0.01 µM, first compound 0.01 µM) was 87.2% and the viability, T/C [7] was 84.3%. For the same compound, the viability, T/C [8] was 74.3%, the viability, T/C [9] was 76.2% and the viability, T/C [10] was 69.5%. For the same compound, the viability, T/C (second compound 0.0316 µM, first compound 0.00316 µM) was 92.9%, the viability, T/C (second compound 0.0316 µM, first compound 0.01 µM) was 80.5% and the viability, T/C [13] was 77.9%. The viability, T/C [14] was 73.8%, the viability, T/C [15] was 76.5% and the viability, T/C [16] was 70.8%. The viability, T/C (second compound 0.1 µM, first compound 0.00316 µM) was 96.9%, the viability, T/C (second compound 0.1 µM, first compound 0.01 µM) was 78.4% and the viability, T/C [19] was 77.8%. For the same compound, the viability, T/C [20] was 80.2%, the viability, T/C [21] was 74.2% and the viability, T/C [22] was 72.9%. For the same compound, the viability, T/C (second compound 0.316 µM, first compound 0.00316 µM) was 93.8%, the viability, T/C (second compound 0.316 µM, first compound 0.01 µM) was 84.2% and the viability, T/C [25] was 91.3%. The viability, T/C [26] was 77.5%, the viability, T/C [27] was 80.4% and the viability, T/C [28] was 69.7%. The viability, T/C (second compound 1 µM, first compound 0.00316 µM) was 92.7%, the viability, T/C (second compound 1 µM, first compound 0.01 µM) was 85.5% and the viability, T/C [31] was 77.9%. The viability, T/C [32] was 81.5%, the viability, T/C [33] was 86.9% and the viability, T/C [34] was 69.7%.
